Results from publication PMC12514245, “Impaired migration and lung invasion of human melanoma by a novel small molecule targeting the transmembrane domain of death receptor p75^NTR” (EMBO Molecular Medicine, 2025).

Test system: A875 shp75 cells
Test: Wound healing cell motility assay, A875 shp75
Format: cell-based, human
Method: For wound healing assay, cells were grown until confluency and subjected to a wound across the cell mono-layer. Cells were then incubated with serum-free media either with DMSO or a small molecule (with or without 5 µM Q_VD_poH) and imaged at specific time-points. Cell migration is reflected as fold change in wound area over time.

## Cc1cccc(-c2cncc(Nc3ccc(Br)c(Cl)c3Cl)n2)c1C [Np75-4A22]
A875 shp75, 1uM, 0 h, Mean
  Wound area (Fold): 1.000 Fold
A875 shp75, 1uM, 0 h, n1
  Wound area (Fold): 0.845 Fold
A875 shp75, 1uM, 0 h, n2
  Wound area (Fold): 1.081 Fold
A875 shp75, 1uM, 0 h, n3
  Wound area (Fold): 1.074 Fold
A875 shp75, 1uM, 3 h, Mean
  Wound area (Fold): 0.931 Fold
A875 shp75, 1uM, 3 h, n1
  Wound area (Fold): 0.916 Fold
A875 shp75, 1uM, 3 h, n2
  Wound area (Fold): 0.940 Fold
A875 shp75, 1uM, 3 h, n3
  Wound area (Fold): 0.936 Fold
A875 shp75, 1uM, 6 h, Mean
  Wound area (Fold): 0.862 Fold
A875 shp75, 1uM, 6 h, n1
  Wound area (Fold): 0.849 Fold
A875 shp75, 1uM, 6 h, n2
  Wound area (Fold): 0.873 Fold
A875 shp75, 1uM, 6 h, n3
  Wound area (Fold): 0.864 Fold
A875 shp75, 1uM, 9 h, Mean
  Wound area (Fold): 0.807 Fold
A875 shp75, 1uM, 9 h, n1
  Wound area (Fold): 0.787 Fold
A875 shp75, 1uM, 9 h, n2
  Wound area (Fold): 0.829 Fold
A875 shp75, 1uM, 9 h, n3
  Wound area (Fold): 0.805 Fold
A875 shp75, 1uM, 12 h, Mean
  Wound area (Fold): 0.763 Fold
A875 shp75, 1uM, 12 h, n1
  Wound area (Fold): 0.742 Fold
A875 shp75, 1uM, 12 h, n2
  Wound area (Fold): 0.785 Fold
A875 shp75, 1uM, 12 h, n3
  Wound area (Fold): 0.763 Fold
A875 shp75, 1uM, 15 h, Mean
  Wound area (Fold): 0.718 Fold
A875 shp75, 1uM, 15 h, n1
  Wound area (Fold): 0.696 Fold
A875 shp75, 1uM, 15 h, n2
  Wound area (Fold): 0.752 Fold
A875 shp75, 1uM, 15 h, n3
  Wound area (Fold): 0.705 Fold
A875 shp75, 1uM, 18 h, Mean
  Wound area (Fold): 0.698 Fold
A875 shp75, 1uM, 18 h, n1
  Wound area (Fold): 0.664 Fold
A875 shp75, 1uM, 18 h, n2
  Wound area (Fold): 0.709 Fold
A875 shp75, 1uM, 18 h, n3
  Wound area (Fold): 0.721 Fold
A875 shp75, 1uM, 21 h, Mean
  Wound area (Fold): 0.669 Fold
A875 shp75, 1uM, 21 h, n1
  Wound area (Fold): 0.640 Fold
A875 shp75, 1uM, 21 h, n2
  Wound area (Fold): 0.695 Fold
A875 shp75, 1uM, 21 h, n3
  Wound area (Fold): 0.673 Fold
A875 shp75, 1uM, 24 h, Mean
  Wound area (Fold): 0.638 Fold
A875 shp75, 1uM, 24 h, n1
  Wound area (Fold): 0.601 Fold
A875 shp75, 1uM, 24 h, n2
  Wound area (Fold): 0.671 Fold
A875 shp75, 1uM, 24 h, n3
  Wound area (Fold): 0.643 Fold
A875 shp75, 2uM, 0 h, Mean
  Wound area (Fold): 1.000 Fold
A875 shp75, 2uM, 0 h, n1
  Wound area (Fold): 0.9754 Fold
A875 shp75, 2uM, 0 h, n2
  Wound area (Fold): 1.0649 Fold
A875 shp75, 2uM, 0 h, n3
  Wound area (Fold): 0.9597 Fold
A875 shp75, 2uM, 3 h, Mean
  Wound area (Fold): 0.910 Fold
A875 shp75, 2uM, 3 h, n1
  Wound area (Fold): 0.9076 Fold
A875 shp75, 2uM, 3 h, n2
  Wound area (Fold): 0.9176 Fold
A875 shp75, 2uM, 3 h, n3
  Wound area (Fold): 0.9063 Fold
A875 shp75, 2uM, 6 h, Mean
  Wound area (Fold): 0.853 Fold
A875 shp75, 2uM, 6 h, n1
  Wound area (Fold): 0.8581 Fold
A875 shp75, 2uM, 6 h, n2
  Wound area (Fold): 0.8655 Fold
A875 shp75, 2uM, 6 h, n3
  Wound area (Fold): 0.836 Fold
A875 shp75, 2uM, 9 h, Mean
  Wound area (Fold): 0.814 Fold
A875 shp75, 2uM, 9 h, n1
  Wound area (Fold): 0.821 Fold
A875 shp75, 2uM, 9 h, n2
  Wound area (Fold): 0.8359 Fold
A875 shp75, 2uM, 9 h, n3
  Wound area (Fold): 0.7843 Fold
A875 shp75, 2uM, 12 h, Mean
  Wound area (Fold): 0.777 Fold
A875 shp75, 2uM, 12 h, n1
  Wound area (Fold): 0.789 Fold
A875 shp75, 2uM, 12 h, n2
  Wound area (Fold): 0.7939 Fold
A875 shp75, 2uM, 12 h, n3
  Wound area (Fold): 0.7491 Fold
A875 shp75, 2uM, 15 h, Mean
  Wound area (Fold): 0.752 Fold
A875 shp75, 2uM, 15 h, n1
  Wound area (Fold): 0.7699 Fold
A875 shp75, 2uM, 15 h, n2
  Wound area (Fold): 0.7822 Fold
A875 shp75, 2uM, 15 h, n3
  Wound area (Fold): 0.7049 Fold
A875 shp75, 2uM, 18 h, Mean
  Wound area (Fold): 0.727 Fold
A875 shp75, 2uM, 18 h, n1
  Wound area (Fold): 0.7451 Fold
A875 shp75, 2uM, 18 h, n2
  Wound area (Fold): 0.762 Fold
A875 shp75, 2uM, 18 h, n3
  Wound area (Fold): 0.6733 Fold
A875 shp75, 2uM, 21 h, Mean
  Wound area (Fold): 0.692 Fold
A875 shp75, 2uM, 21 h, n1
  Wound area (Fold): 0.7162 Fold
A875 shp75, 2uM, 21 h, n2
  Wound area (Fold): 0.7095 Fold
A875 shp75, 2uM, 21 h, n3
  Wound area (Fold): 0.6489 Fold
A875 shp75, 2uM, 24 h, Mean
  Wound area (Fold): 0.665 Fold
A875 shp75, 2uM, 24 h, n1
  Wound area (Fold): 0.7012 Fold
A875 shp75, 2uM, 24 h, n2
  Wound area (Fold): 0.6688 Fold
A875 shp75, 2uM, 24 h, n3
  Wound area (Fold): 0.6256 Fold
